The nature of data set [1]: Bioavailability of 6-O-methylerythromycin in dogs (Example 12). Format: in vivo. To be noted: dog, blood, po, 250 mg 6-O-methylerythromycin, fasted, histamine. On the procedure:
All dogs were fasted overnight, and histamine was administered one hour prior to dosing with the test composition. […] Blood samples were drawn and assayed using a standard microbiological assay. All dogs were fed 12 hours after dosing.

Data set [2] in a line: Solubility of drug after stirring material providing approx. 20 mg/mL active drug for 24 hours in water (buffer for pure drugs). Format: physicochemical.

This note sets out measurements from US4808411A, “Antibiotic-polymer compositions” (Abbott Laboratories, priority 1987, dated 1989).

Converted amounts (≈) assume the structure as drawn.

Turning to `CC[C@H]1OC(=O)[C@H](C)[C@@H](O[C@H]2C[C@@](C)(OC)[C@@H](O)[C@H](C)O2)[C@H](C)[C@@H](O[C@@H]2O[C@H](C)C[C@H](N(C)C)[C@H]2O)[C@](C)(OC)C[C@@H](C)C(=O)[C@H](C)[C@@H](O)[C@]1(C)O` [6-O--Methyl-ery, 6-O-methylerythromycin], the AUC(0-t) at 8 h in data set [1] came to 43500 ng·h/mL. This molecule came in with a Cmax in data set [1] of 5370 ng/mL. Moreover, the Tmax in data set [1] came out at 1.33 h. Besides, the solubility at 24 h in data set [2] (pH 6.2, aqueous buffer) was found to be 7000 µg/mL (≈ 9360 µM); in data set [2] (pH 7, aqueous buffer), 1650 µg/mL (≈ 2210 µM); in data set [2] (pH 7.98, aqueous buffer), 134 µg/mL (≈ 179 µM).

On to `CC[C@H]1OC(=O)[C@H](C)[C@@H](O[C@H]2C[C@@](C)(OC)[C@@H](O)[C@H](C)O2)[C@H](C)[C@@H](O[C@@H]2O[C@H](C)C[C@H](N(C)C)[C@H]2O)[C@](C)(O)C[C@@H](C)C(=O)[C@H](C)[C@@H](O)[C@]1(C)O` [Erythromycin, erythromycin], for which the solubility at 24 h in data set [2] (pH 7.72, aqueous buffer) turned out to be 12200 µg/mL (≈ 16600 µM); in data set [2] (pH 8.24, aqueous buffer) it was 2120 µg/mL (≈ 2890 µM).
